The target in the experiment is GLP-1R (Homo sapiens, UniProt P43220). Description: GLP-1R Activation - cAMP Assay. The experiment is classed as cell-based. To be noted: cAMP increase in CHO cells stably expressing GLP-1R; each compound run on one of the two cAMP assays (Assay 1 or Assay 2, not specified). Put shortly: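 cAMP rise read by HTRF after 30 min agonist exposure (10-point titration, 37 °C) in HBSS/20 mM Hepes/0.1% BSA, following 1 h pre-incubation. Cells: stable GLP-1R CHO line, 1,000/well, seeded overnight. Sigmoidal fit of response vs log concentration gives EC50.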
GLP-1R, sequence (P43220 24-463): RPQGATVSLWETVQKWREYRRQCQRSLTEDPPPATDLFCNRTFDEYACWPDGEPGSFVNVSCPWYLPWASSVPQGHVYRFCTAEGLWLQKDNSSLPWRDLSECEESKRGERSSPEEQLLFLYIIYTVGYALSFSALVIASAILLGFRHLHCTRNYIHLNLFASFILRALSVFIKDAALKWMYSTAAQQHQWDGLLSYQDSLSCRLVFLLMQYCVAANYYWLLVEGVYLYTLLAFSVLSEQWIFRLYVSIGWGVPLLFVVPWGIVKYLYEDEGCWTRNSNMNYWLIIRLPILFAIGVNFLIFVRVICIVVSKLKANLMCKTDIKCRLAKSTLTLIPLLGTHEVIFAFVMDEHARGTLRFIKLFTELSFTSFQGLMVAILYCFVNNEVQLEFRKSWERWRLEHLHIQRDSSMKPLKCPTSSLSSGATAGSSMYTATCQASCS
In the case of `CC1(C)COC[C@H]1n1c(Cn2cc(Cl)c(-c3cccc(OCc4ccc(Cl)cc4F)n3)cc2=O)nc2c(F)cc(C(=O)O)cc21` [Example 327, (S)-2-((5′-chloro-6-((4-chloro-2-fluorobenzyl)oxy)-2′-oxo-[2,4′-bipyridin]-1′(2′H)-yl)methyl)-1-(4,4-dimethyltetrahydrofuran-3-yl)-4-fluoro-1H-benzo[d]imidazole-6-carboxylic acid], the EC50 worked out at 0.266 nM.
For the compound `CC1(C)COC[C@H]1n1c(Cn2cc(F)c(-c3ccc(F)c(OCc4ccc(C#N)cc4F)n3)cc2=O)nc2ccc(C(=O)O)cc21` [Example 328, (S)-2-((6-((4-cyano-2-fluorobenzyl)oxy)-5,5′-difluoro-2′-oxo-[2,4′-bipyridin]-1′(2′H)-yl)methyl)-1-(4,4-dimethyltetrahydrofuran-3-yl)-1H-benzo[d]imidazole-6-carboxylic acid], the EC50 was 0.555 nM.
Regarding `CC1(C)COC[C@H]1n1c(Cc2ccc(-c3cccc(OCc4ccc(Cl)cc4F)n3)cc2F)nc2c(F)cc(C(=O)O)cc21` [Example 329, (S)-2-(4-(6-((4-chloro-2-fluorobenzyl)oxy)pyridin-2-yl)-2-fluorobenzyl)-1-(4,4-dimethyltetrahydrofuran-3-yl)-4-fluoro-1H-benzo[d]imidazole-6-carboxylic acid], the EC50 was determined as 0.062 nM.
Compound `CC1(C)COC[C@H]1n1c(Cc2ccc(-c3ccc(F)c(OCc4ccc(C#N)cc4F)n3)cc2F)nc2ccc(C(=O)O)cc21` [Example 330] registered an EC50 of 0.011 nM.
In the case of `CC1(C)COC[C@H]1n1c(Cc2ccc(-c3cccc(OCc4ccc(Cl)cc4F)n3)cc2F)nc2ccc(C(=O)O)cc21` [Example 331, (S)-2-(4-(6-((4-chloro-2-fluorobenzyl)oxy)pyridin-2-yl)-2-fluorobenzyl)-1-(4,4-dimethyltetrahydrofuran-3-yl)-1H-benzo[d]imidazole-6-carboxylic acid] it was 0.218 nM.
In turn, `CC1(C)COC[C@H]1n1c(Cc2ccc(-c3ccc(F)c(OCc4ccc(Cl)cc4F)n3)cc2F)nc2ccc(C(=O)O)cc21` [Example 332, (S)-2-(4-(6-((4-chloro-2-fluorobenzyl)oxy)-5-fluoropyridin-2-yl)-2-fluorobenzyl)-1-(4,4-dimethyltetrahydrofuran-3-yl)-1H-benzo[d]imidazole-6-carboxylic acid] registered an EC50 of 0.159 nM.
`Cc1cc(Cc2nc3c(F)cc(C(=O)O)cc3n2[C@@H]2COCC2(C)C)c(Cl)cc1-c1ccc(F)c(OCc2ccc(Cl)cc2F)n1` [Example 334, (S)-2-(2-chloro-4-(6-((4-chloro-2-fluorobenzyl)oxy)-5-fluoropyridin-2-yl)-5-methylbenzyl)-1-(4,4-dimethyltetrahydrofuran-3-yl)-4-fluoro-1H-benzo[d]imidazole-6-carboxylic acid] registered a concentration giving a half-maximal response (EC50) of 0.067 nM.
In the case of `CC1(C)COC[C@H]1n1c(Cc2c(F)cc(-c3ccc(F)c(OCc4ccc(Cl)cc4F)n3)c(F)c2F)nc2ccc(C(=O)O)cc21` [Example 335, (S)-2-(4-(6-((4-chloro-2-fluorobenzyl)oxy)-5-fluoropyridin-2-yl)-2,3,6-trifluorobenzyl)-1-(4,4-dimethyltetrahydrofuran-3-yl)-1H-benzo[d]imidazole-6-carboxylic acid] it was 0.306 nM; in that of `CC1(C)COC[C@H]1n1c(Cc2c(F)cc(-c3ccc(F)c(OCc4ccc(Cl)cc4F)n3)c(F)c2F)nc2c(F)cc(C(=O)O)cc21` [Example 336, (S)-2-(4-(6-((4-chloro-2-fluorobenzyl)oxy)-5-fluoropyridin-2-yl)-2,3,6-trifluorobenzyl)-1-(4,4-dimethyltetrahydrofuran-3-yl)-4-fluoro-1H-benzo[d]imidazole-6-carboxylic acid], 0.016 nM; in that of `CC1(C)COC[C@H]1n1c(Cc2ccc(-c3ccc(F)c(OCc4ccc(C#N)cc4F)n3)cc2F)nc2c(F)cc(C(=O)O)cc21` [Example 337, (S)-2-(4-(6-((4-cyano-2-fluorobenzyl)oxy)-5-fluoropyridin-2-yl)-2-fluorobenzyl)-1-(4,4-dimethyltetrahydrofuran-3-yl)-4-fluoro-1H-benzo[d]imidazole-6-carboxylic acid], 0.025 nM.
In the case of `COc1cc(Cl)ncc1COc1nc(-c2cc(F)c(Cc3nc4c(F)cc(C(=O)O)cc4n3[C@@H]3COCC3(C)C)c(F)c2F)ccc1F` [Example 339, (S)-2-(4-(6-((6-chloro-4-methoxypyridin-3-yl)methoxy)-5-fluoropyridin-2-yl)-2,3,6-trifluorobenzyl)-1-(4,4-dimethyltetrahydrofuran-3-yl)-4-fluoro-1H-benzo[d]imidazole-6-carboxylic acid] it was 0.013 nM; in that of `COc1cc(Cl)ncc1COc1nc(-c2cc(F)c(Cc3nc4c(F)cc(C(=O)O)cc4n3[C@@H]3COCC3(C)C)cc2F)ccc1F` [Example 340, (S)-2-(4-(6-((6-chloro-4-methoxypyridin-3-yl)methoxy)-5-fluoropyridin-2-yl)-2,5-difluorobenzyl)-1-(4,4-dimethyltetrahydrofuran-3-yl)-4-fluoro-1H-benzo[d]imidazole-6-carboxylic acid], 0.005 nM; in that of `COc1cc(Cl)ncc1COc1nc(-c2cc(F)c(Cc3nc4ccc(C(=O)O)cc4n3[C@@H]3COCC3(C)C)c(F)c2F)ccc1F` [Example 341, (S)-2-(4-(6-((6-chloro-4-methoxypyridin-3-yl)methoxy)-5-fluoropyridin-2-yl)-2,3,6-trifluorobenzyl)-1-(4,4-dimethyltetrahydrofuran-3-yl)-1H-benzo[d]imidazole-6-carboxylic acid], 0.024 nM.
Turning to `COc1cc(Cl)ncc1COc1nc(-c2cc(F)c(Cc3nc4ccc(C(=O)O)cc4n3[C@@H]3COCC3(C)C)cc2F)ccc1F` [Example 342, (S)-2-(4-(6-((6-chloro-4-methoxypyridin-3-yl)methoxy)-5-fluoropyridin-2-yl)-2,5-difluorobenzyl)-1-(4,4-dimethyltetrahydrofuran-3-yl)-1H-benzo[d]imidazole-6-carboxylic acid], the response was half-maximal at 0.012 nM (EC50).
With `CC1(C)COCC1n1c(Cc2cc(F)c(-c3ccnc(OCc4ccc(Cl)cc4F)n3)cc2Cl)nc2c(F)cc(C(=O)O)cc21` (centres unmarked) [Example 343, 2-(2-chloro-4-(2-((4-chloro-2-fluorobenzyl)oxy)pyrimidin-4-yl)-5-fluorobenzyl)-1-(4,4-dimethyltetrahydrofuran-3-yl)-4-fluoro-1H-benzo[d]imidazole-6-carboxylic acid], the EC50 was found to be 0.113 nM.
Under `CC1(C)COCC1n1c(Cc2cc(F)c(-c3ccnc(OCc4ccc(C(F)F)cc4F)n3)cc2Cl)nc2c(F)cc(C(=O)O)cc21` (centres unmarked) [Example 344, 2-(2-chloro-4-(2-((4-(difluoromethyl)-2-fluorobenzyl)oxy)pyrimidin-4-yl)-5-fluorobenzyl)-1-(4,4-dimethyltetrahydrofuran-3-yl)-4-fluoro-1H-benzo[d]imidazole-6-carboxylic acid] stands 0.147 nM; under `CC1(C)COCC1n1c(Cc2cc(F)c(-c3ccc(F)c(OCc4ccc(C#N)cc4F)n3)cc2Cl)nc2ccc(C(=O)O)cc21` (centres unmarked) [Example 345, 2-(2-chloro-4-(6-((4-cyano-2-fluorobenzyl)oxy)-5-fluoropyridin-2-yl)-5-fluorobenzyl)-1-(4,4-dimethyltetrahydrofuran-3-yl)-1H-benzo[d]imidazole-6-carboxylic acid], 0.197 nM.
Under `CC1(C)COCC1n1c(Cc2cc(F)c(-c3ccc(F)c(OCc4ccc(C#N)cc4F)n3)cc2Cl)nc2c(F)cc(C(=O)O)cc21` (centres unmarked) [Example 346, 2-(2-chloro-4-(6-((4-cyano-2-fluorobenzyl)oxy)-5-fluoropyridin-2-yl)-5-fluorobenzyl)-1-(4,4-dimethyltetrahydrofuran-3-yl)-4-fluoro-1H-benzo[d]imidazole-6-carboxylic acid] stands 0.075 nM.
Regarding `CC1(C)COCC1n1c(Cc2cc(F)c(-c3ccc(F)c(OCc4ccc(Cl)cc4F)n3)cc2F)nc2c(F)cc(C(=O)O)cc21` (centres unmarked) [Example 347, 2-(4-(6-((4-chloro-2-fluorobenzyl)oxy)-5-fluoropyridin-2-yl)-2,5-difluorobenzyl)-1-(4,4-dimethyltetrahydrofuran-3-yl)-4-fluoro-1H-benzo[d]imidazole-6-carboxylic acid], it took 0.132 nM to reach a half-maximal effect (EC50). This EC50 lies about 1.8-fold higher than the previous one.
For the compound `CC1(C)COCC1n1c(Cc2cc(F)c(-c3nccc(OCc4ccc(Cl)cc4F)n3)cc2F)nc2c(F)cc(C(=O)O)cc21` (centres unmarked) [Example 348, 2-(4-(4-((4-chloro-2-fluorobenzyl)oxy)pyrimidin-2-yl)-2,5-difluorobenzyl)-1-(4,4-dimethyltetrahydrofuran-3-yl)-4-fluoro-1H-benzo[d]imidazole-6-carboxylic acid], the half-maximal effective concentration (EC50) was 0.55 nM.
In the case of `COC(=O)N1Cc2ccc(COc3cccc(-c4cc(F)c(Cc5nc6c(F)cc(C(=O)O)cc6n5C[C@@H]5CCO5)cc4F)n3)cc2C1` [Example 349, 2-[[2,5-difluoro-4-[6-[(2-methoxycarbonylisoindolin-5-yl)methoxy]-2-pyridyl]phenyl]methyl]-7-fluoro-3-[[(2S)-oxetan-2-yl]methyl]benzimidazole-5-carboxylic acid] it was 0.042 nM; in that of `COCCn1c(Cc2cc(F)c(-c3cccc(OCc4ccc(-n5ccnn5)nc4)n3)cc2Cl)nc2c(F)cc(C(=O)O)cc21` [Example 350, 2-(4-(6-((6-(1H-1,2,3-triazol-1-yl)pyridin-3-yl)methoxy)pyridin-2-yl)-2-chloro-5-fluorobenzyl)-4-fluoro-1-(2-methoxyethyl)-1H-benzo[d]imidazole-6-carboxylic acid], 0.171 nM.
In turn, `COCCn1c(Cc2cc(F)c(-c3cccc(OCc4ccc(C#N)cc4F)n3)cc2Cl)nc2c(F)cc(C(=O)O)cc21` [Example 351, 2-(2-chloro-4-(6-((4-cyano-2-fluorobenzyl)oxy)pyridin-2-yl)-5-fluorobenzyl)-4-fluoro-1-(2-methoxyethyl)-1H-benzo[d]imidazole-6-carboxylic acid] registered an EC50 of 0.074 nM.

(Values after patent US12570642B2, “GLP-IR modulating compounds” (Gilead Sciences, Inc., priority 2021, dated 2026).)
